Experimental findings from patent US4859696A, “Precutaneous absorption accelerator and preparation containing same” (Kao Corporation, priority 1984, dated 1989) are described below.

Series [1] is described as follows: Change in blood sugar level after rectal administration of insulin solutions to rabbits. Type of series: in vivo, rabbit (Japanese white male). How it is done: Japanese white male rabbits weighing about 2.5 kg, fasted for 24 hours, were fixed at the back, and each of solutions shown in Table 1 was administered to the rectum of about 2.5 cm from the anus using a tube. Cannule was inserted into the femoral vein of the hind leg to collect about 0.2 ml each of blood in every fixed time interval. Blood sugar level was measured using destrostick. Change in blood sugar level was determined with the passage of time, as the blood sugar level prior to administration being rendered 100%.

The nature of series [2]: Test of percutaneous absorption of indomethacin. Type of series: in vivo, rabbit (Japanese white female). The settings on record: as compared to the comparative preparations. How it is done:
Topical agents containing indometacin shown below were prepared and percutaneous absorption was examined with the topical agents.
Seven (7) Japanese white female rabbits weighing about 3 kg were used as one group. The topical agents of the present invention and the comparative preparations were applied onto the normal abdominal skin (10 cm×14 cm) of the rabbits in each group, from which the body hair was cut, respectively, at a dose corresponding to 20 mg of indomethacin. Blood was collected from the vein of the ear after 4, 10 and 20 hours and, blood concentration of indomethacin was measured.

Series [3] in a line: Test for percutaneous absorption of methyl salicylate (cataplasms). Format: in vivo, rabbit (Japanese white female). The settings on record: as compared to the cataplasm for comparison. How it is done:
Cataplasms shown below were prepared and, the percutaneous absorption of methyl salicylate was tested.
Seven (7) Japanese white female rabbits weighing about 3 kg were used as one group. […] Blood was collected from the vein of the femur after 3, 6, 10, 20 and 30 hours and, blood concentration of methyl salicylate was measured.

Series [4] has as its system carrageenin caused edema. Nature of the series: Inhibition of carrageenin caused edema on the paw of the rat. The settings on record: as compared to the comparative preparation. Type of series: in vivo, rat (Wistar male). How it is done: With respect to the topical agents of the present invention, the pharmacological effect was examined according to the inhibition of carrageenin caused edema on the paw of the rat.
Wistar male 10 rats, weighing about 110 g, were used as one group. The volume of the right rear paw of the rats in each group was previously measured using a branched glass container. A 1% carrageenin aqueous solution was subcutaneously injected to the right rear paw sole in a dose of 0.125 ml. Immediately thereafter 0.3 g of indomethacin topical agents were applied to the skin of the right rear paw sole. In the control group, carrageenin alone was injected. Then, the volume of the rear paw was measured every 90 minutes, which was continued until 6 hours after. The rate of edema and the inhibition rate of edema were calculated as described below. [formula]
(In general: In the carrageenan paw model, swelling and tenderness develop within hours.)

Where [5] appears, read: 15 mins., this invention, ether derivative 0.1 g with insulin 10/kg, saline 0.65 g, ethanol 0.25 g.
Setting [6] is: 30 mins., this invention, ether derivative 0.1 g with insulin 10/kg, saline 0.65 g, ethanol 0.25 g.
[7] abbreviates: 45 mins., this invention, ether derivative 0.1 g with insulin 10/kg, saline 0.65 g, ethanol 0.25 g.
Setting [8] is: 60 mins., this invention, ether derivative 0.1 g with insulin 10/kg, saline 0.65 g, ethanol 0.25 g.
[9] abbreviates: 90 mins., this invention, ether derivative 0.1 g with insulin 10/kg, saline 0.65 g, ethanol 0.25 g.
The mark [10] stands for this setting: 120 mins., this invention, ether derivative 0.1 g with insulin 10/kg, saline 0.65 g, ethanol 0.25 g.

Turning to “1-O-methyl-branched isostearyl-3-O-methyl-2-O-2',3'-dihydroxypropylglycerol”, the “Rate of Change in Blood Sugar Level before Administration” value (from here on “Rate of Change”) in series [1] (setting [5]) is listed as -17.8%; in series [1] (setting [6]), -18.3%; in series [1] (setting [7]), -24.5%; in series [1] (setting [8]), -28.6%; in series [1] (setting [9]), -21.9%; in series [1] (setting [10]), -19.8%.
Regarding `CCCCCCCCCCCCOCC(COC)OCC(O)CO` (stereo not drawn) [1-O-n-dodecyl-3-O-methyl-2-O-2',3'-dihydroxypropylglycerol], the “Rate of Change” value in series [1] (15 mins., control, ether derivative 1 g) is given as “+6.5%”; in series [1] (15 mins., this invention, ether derivative 0.05 g with insulin 10/kg, saline 0.70 g, ethanol 0.25 g), -13.4%; in series [1] (setting [5]) it was -19.2%; in series [1] (30 mins., control, ether derivative 1 g) it was “+10.2%”; in series [1] (30 mins., this invention, ether derivative 0.05 g with insulin 10/kg, saline 0.70 g, ethanol 0.25 g) it was -18.6%; in series [1] (setting [6]) it was -28.9%. Further, the “Rate of Change” value in series [1] (45 mins., control, ether derivative 1 g) is “+9.8%”; in series [1] (45 mins., this invention, ether derivative 0.05 g with insulin 10/kg, saline 0.70 g, ethanol 0.25 g), -25.2%; in series [1] (setting [7]) it was -32.7%; in series [1] (60 mins., control, ether derivative 1 g) it was “+9.5%”; in series [1] (60 mins., this invention, ether derivative 0.05 g with insulin 10/kg, saline 0.70 g, ethanol 0.25 g), -27.6%; in series [1] (setting [8]), -28.0%. The “Rate of Change” value in series [1] (90 mins., control, ether derivative 1 g) is “+9.5%”; in series [1] (90 mins., this invention, ether derivative 0.05 g with insulin 10/kg, saline 0.70 g, ethanol 0.25 g), -25.8%; in series [1] (setting [9]) it was -19.5%; in series [1] (120 mins., control, ether derivative 1 g) it was “+10.2%”; in series [1] (120 mins., this invention, ether derivative 0.05 g with insulin 10/kg, saline 0.70 g, ethanol 0.25 g), -22.4%; in series [1] (setting [10]) it was -18.2%. Moreover, the “percutaneous absorption of indomethacin (in words)” value in series [2] is given as “extremely high percutaneous absorption of indomethacin”. In series [3], the “percutaneous absorption of methyl salicylate (in words)” value is on record as “extremely high percutaneous absorption of methyl salicylate”. Moreover, the “rate of preventing the edema / pharmacological effect of indomethacin (in words)” value in series [4] is on record as “extremely high pharmacological effect of indomethacin”.
As for “Insulin: Insulin 10/kg in 25% Ethanol solution (control of Table 1)”, the “Rate of Change” value in series [1] (15 mins., control, insulin 10/kg in 25% ethanol solution) is on record as “+5.0%”; in series [1] (30 mins., control, insulin 10/kg in 25% ethanol solution) it was “+12.9%”; in series [1] (45 mins., control, insulin 10/kg in 25% ethanol solution) it was “+11.5%”; in series [1] (60 mins., control, insulin 10/kg in 25% ethanol solution) it was “+4.8%”; in series [1] (90 mins., control, insulin 10/kg in 25% ethanol solution), “+1.5%”; in series [1] (120 mins., control, insulin 10/kg in 25% ethanol solution), “+2.7%”.
